pEC50: −log10 of the molar value. Where two headings read alike, the source gives them in different places.
Molecular target: 229E Mpro (Human coronavirus 229E (HCoV-229E), UniProt P0C6X1)
Assay: 229E Mpro activity
Type: biochemical
Description: Compounds are assayed using standard methods to assess compound activity and IC50. […] The assay buffer contains 20 mM of Tris-HCl (pH 7.3), 100 mM of NaCl, 1 mM of EDTA, 5mM of TCEP and 0.1% BSA.

Sequence of 229E Mpro (P0C6X1 2966-3267 limits assumed): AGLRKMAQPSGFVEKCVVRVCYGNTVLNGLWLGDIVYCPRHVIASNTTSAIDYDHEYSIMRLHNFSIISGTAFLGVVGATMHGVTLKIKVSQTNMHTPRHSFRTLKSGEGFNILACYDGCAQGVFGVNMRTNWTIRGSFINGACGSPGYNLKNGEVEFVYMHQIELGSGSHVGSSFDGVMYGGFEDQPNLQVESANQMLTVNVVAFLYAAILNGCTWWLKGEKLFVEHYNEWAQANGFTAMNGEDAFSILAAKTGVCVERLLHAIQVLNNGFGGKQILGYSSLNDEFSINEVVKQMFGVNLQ

COc1cccc2[nH]c(C(=O)N3C[C@H](C(C)(C)C)C[C@H]3C(=O)N[C@H](C#N)C[C@@H]3CCNC3=O)cc12 [Compound 655, (2S,4S)-4-(tert-butyl)-N-((S)-1-cyano-2-((S)-2-oxopyrrolidin-3-yl)ethyl)-1-(4-methoxy-1H-indole-2-carbonyl)pyrrolidine-2-carboxamide] gave a pEC50 (read-out: 229E Mpro EC50) of 4.52 to 5.00.
For COc1cccc2[nH]c(C(=O)N[C@H](CN[C@H](C#N)C[C@@H]3CCNC3=O)CC(C)(C)C)cc12 [Compound 659, N-[(1S)-1-[[[(1S)-1-cyano-2-[(3S)-2-oxopyrrolidin-3-yl]ethyl]amino]methyl]-3,3-dimethyl-butyl]-4-methoxy-1H-indole-2-carboxamide], the pEC50 (read-out: 229E Mpro EC50) was < 4.52.
COc1cccc2[nH]c(C(=O)N[C@@H](CC(C)(C)F)C(=O)N[C@H](C#N)C[C@@H]3CCCNC3=O)cc12 [Compound 667, N-[(1S)-1-[[(1S)-1-cyano-2-[(3S)-2-oxo-3-piperidyl]ethyl]carbamoyl]-3-fluoro-3-methyl-butyl]-4-methoxy-1H-indole-2-carboxamide] was tested, and the pEC50 (read-out: 229E Mpro EC50) was > 5.70.
N#C[C@H](C[C@@H]1CCCNC1=O)NC(=O)[C@H](CC1CC1)NC(=O)c1cc2c(Cl)cncc2[nH]1 [Compound 669, 4-chloro-N-((S)-1-(((S)-1-cyano-2-((S)-2-oxopiperidin-3-yl)ethyl)amino)-3-cyclopropyl-1-oxopropan-2-yl)-1H-pyrrolo[2,3-c]pyridine-2-carboxamide] was tested, and the pEC50 (read-out: 229E Mpro EC50) was > 5.70.
With N#C[C@H](C[C@@H]1CCNC1=O)NC(=O)[C@H](CC1CC1)NC(=O)c1cc2c(Cl)ccc(Cl)c2[nH]1 [Compound 691, 4,7-dichloro-N-[(1S)-2-[[(1S)-1-cyano-2-[(3S)-2-oxopyrrolidin-3-yl]ethyl]amino]-1-(cyclopropylmethyl)-2-oxo-ethyl]-1H-indole-2-carboxamide] the pEC50 (read-out: 229E Mpro EC50) was > 5.70.
With COc1cc(Cl)c2[nH]c(C(=O)N[C@@H](CC3CC3)C(=O)N[C@H](C#N)C[C@@H]3CCNC3=O)cc2c1 [Compound 695, 7-chloro-N-[(1S)-2-[[(1S)-1-cyano-2-[(3S)-2-oxopyrrolidin-3-yl]ethyl]amino]-1-(cyclopropylmethyl)-2-oxo-ethyl]-5-methoxy-1H-indole-2-carboxamide] the pEC50 (read-out: 229E Mpro EC50) was > 5.70.
With N#C[C@H](C[C@@H]1CCCNC1=O)NC(=O)[C@H](CC1CC1)NC(=O)c1cc2ccc(Cl)c(Cl)c2[nH]1 [Compound 727, 6,7-dichloro-N-[(1S)-2-[[(1S)-1-cyano-2-[(3S)-2-oxo-3-piperidyl]ethyl]amino]-1-(cyclopropylmethyl)-2-oxo-ethyl]-1H-indole-2-carboxamide] the pEC50 (read-out: 229E Mpro EC50) was > 5.70.
COc1cccc2[nH]c(C(=O)N[C@H](CC(C)C)C(=O)N[C@@H](CC3CCNC3=O)C(=O)CO)cc12 (stereo partly drawn) [Compound 740, N-[(1R)-1-[[(1S)-3-hydroxy-2-oxo-1-[[(3S)-2-oxopyrrolidin-3-yl]methyl]propyl]carbamoyl]-3-methyl-butyl]-4-methoxy-1H-indole-2-carboxamide] showed a pEC50 (229E Mpro EC50) of 4.52 to 5.00.
For COc1cccc2[nH]c(C(=O)N[C@@H](CC(C)C)C(=O)N[C@@H](C[C@@H]3CCNC3=O)C(=O)CO)cc12 [Compound 741, N-[(1S)-1-[[(1S)-3-hydroxy-2-oxo-1-[[(3S)-2-oxopyrrolidin-3-yl]methyl]propyl]carbamoyl]-3-methyl-butyl]-4-methoxy-1H-indole-2-carboxamide], the pEC50 (read-out: 229E Mpro EC50) was > 5.70.
For CC(C)(C)C[C@H](NC(=O)c1cc2c(Cl)cccc2[nH]1)C(=O)N[C@H](C#N)C[C@@H]1CCCNC1=O [Compound 793, 4-chloro-N-[(1S)-1-[[(1S)-1-cyano-2-[(3S)-2-oxo-3-piperidyl]ethyl]carbamoyl]-3,3-dimethyl-butyl]-1H-indole-2-carboxamide], the pEC50 (read-out: 229E Mpro EC50) was > 5.70.
In the case of CC(C)(C)C[C@H](NC(=O)c1cc2c(Cl)cc(Cl)cc2[nH]1)C(=O)N[C@H](C#N)C[C@@H]1CCCNC1=O [Compound 795, 4,6-dichloro-N-((S)-1-(((S)-1-cyano-2-((S)-2-oxopiperidin-3-yl)ethyl)amino)-4,4-dimethyl-1-oxopentan-2-yl)-1H-indole-2-carboxamide], the pEC50 (read-out: 229E Mpro EC50) was > 5.70.
With COc1ccc2[nH]c(C(=O)N[C@@H](CC(C)(C)C)C(=O)N[C@H](C#N)C[C@@H]3CCCNC3=O)cc2c1Cl [Compound 808, 4-chloro-N-[(1S)-1-[[(1S)-1-cyano-2-[(3S)-2-oxo-3-piperidyl]ethyl]carbamoyl]-3,3-dimethyl-butyl]-5-methoxy-1H-indole-2-carboxamide] the pEC50 (read-out: 229E Mpro EC50) was > 5.70.
In the case of COc1cc(Cl)c2[nH]c(C(=O)N[C@@H](CC(C)(C)C)C(=O)N[C@H](C#N)C[C@@H]3CCCNC3=O)cc2c1 [Compound 810, 7-chloro-N-[(1S)-1-[[(1S)-1-cyano-2-[(3S)-2-oxo-3-piperidyl]ethyl]carbamoyl]-3,3-dimethyl-butyl]-5-methoxy-1H-indole-2-carboxamide], the pEC50 (read-out: 229E Mpro EC50) was > 5.70.
For N#C[C@H](C[C@@H]1CCCNC1=O)NC(=O)[C@H](CC1CC1)NC(=O)c1cc2c(Cl)cccc2[nH]1 [Compound 812, 4-chloro-N-[(1S)-2-[[(1S)-1-cyano-2-[(3S)-2-oxo-3-piperidyl]ethyl]amino]-1-(cyclopropylmethyl)-2-oxo-ethyl]-1H-indole-2-carboxamide], the pEC50 (read-out: 229E Mpro EC50) was > 5.70.
In the case of CC(C)(C)C[C@H](NC(=O)c1cc2c(F)cccc2[nH]1)C(=O)N[C@H](C#N)C[C@@H]1CCCNC1=O [Compound 816], the pEC50 (read-out: 229E Mpro EC50) was < 4.52.
In the case of COc1ccc(F)c2[nH]c(C(=O)N[C@@H](CC3CC3)C(=O)N[C@H](C#N)C[C@@H]3CCCNC3=O)cc12 [Compound 820, N-((S)-1-(((S)-1-cyano-2-((S)-2-oxopiperidin-3-yl)ethyl)amino)-3-cyclopropyl-1-oxopropan-2-yl)-7-fluoro-4-methoxy-1H-indole-2-carboxamide], the pEC50 (read-out: 229E Mpro EC50) was > 5.70.
For N#C[C@H](C[C@@H]1CCCNC1=O)NC(=O)[C@H](CC1CC1)NC(=O)c1cc2c(Cl)c(F)ccc2[nH]1 [Compound 822, 4-chloro-N-[(1S)-2-[[(1S)-1-cyano-2-[(3S)-2-oxo-3-piperidyl]ethyl]amino]-1-(cyclopropylmethyl)-2-oxo-ethyl]-5-fluoro-1H-indole-2-carboxamide], the pEC50 (read-out: 229E Mpro EC50) was > 5.70.
In the case of N#C[C@H](C[C@@H]1CCCNC1=O)NC(=O)[C@H](CC1CC1)NC(=O)c1cc2c(Cl)cc(F)cc2[nH]1 [Compound 824, 4-chloro-N-[(1S)-2-[[(1S)-1-cyano-2-[(3S)-2-oxo-3-piperidyl]ethyl]amino]-1-(cyclopropylmethyl)-2-oxo-ethyl]-6-fluoro-1H-indole-2-carboxamide], the pEC50 (read-out: 229E Mpro EC50) was > 5.70.
In the case of N#C[C@H](C[C@@H]1CCCNC1=O)NC(=O)[C@H](CC1CC1)NC(=O)c1cc2c(Cl)ccc(F)c2[nH]1 [Compound 826], the pEC50 (read-out: 229E Mpro EC50) was > 5.70.
With N#C[C@H](C[C@@H]1CCCNC1=O)NC(=O)[C@H](CC1CC1)NC(=O)c1cc2ccc(F)c(Cl)c2[nH]1 [Compound 828, 7-chloro-N-[(1S)-2-[[(1S)-1-cyano-2-[(3S)-2-oxo-3-piperidyl]ethyl]amino]-1-(cyclopropylmethyl)-2-oxo-ethyl]-6-fluoro-1H-indole-2-carboxamide] the pEC50 (read-out: 229E Mpro EC50) was > 5.70.
In the case of N#C[C@H](C[C@@H]1CCCNC1=O)NC(=O)[C@H](CC1CC1)NC(=O)c1cc2cc(F)cc(Cl)c2[nH]1 [Compound 830, 7-chloro-N-((S)-1-(((S)-1-cyano-2-((S)-2-oxopiperidin-3-yl)ethyl)amino)-3-cyclopropyl-1-oxopropan-2-yl)-5-fluoro-1H-indole-2-carboxamide], the pEC50 (read-out: 229E Mpro EC50) was > 5.70.
In the case of N#C[C@H](C[C@@H]1CCCNC1=O)NC(=O)[C@H](CC1CC1)NC(=O)c1cc2c(F)ccc(Cl)c2[nH]1 [Compound 832, 7-chloro-N-[(1S)-2-[[(1S)-1-cyano-2-[(3S)-2-oxo-3-piperidyl]ethyl]amino]-1-(cyclopropylmethyl)-2-oxo-ethyl]-4-fluoro-1H-indole-2-carboxamide], the pEC50 (read-out: 229E Mpro EC50) was > 5.70.
In the case of N#C[C@H](C[C@@H]1CCCNC1=O)NC(=O)[C@H](CC1CC1)NC(=O)c1cc2c(F)cc(Cl)cc2[nH]1 [Compound 838, 6-chloro-N-[(1S)-2-[[(1S)-1-cyano-2-[(3S)-2-oxo-3-piperidyl]ethyl]amino]-1-(cyclopropylmethyl)-2-oxo-ethyl]-4-fluoro-1H-indole-2-carboxamide], the pEC50 (read-out: 229E Mpro EC50) was > 5.70.
With N#C[C@H](C[C@@H]1CCCNC1=O)NC(=O)[C@H](CC1CC1)NC(=O)c1cc2c(Cl)cc(Cl)cc2[nH]1 [Compound 840, 4,6-dichloro-N-[(1S)-2-[[(1S)-1-cyano-2-[(3S)-2-oxo-3-piperidyl]ethyl]amino]-1-(cyclopropylmethyl)-2-oxo-ethyl]-1H-indole-2-carboxamide] the pEC50 (read-out: 229E Mpro EC50) was > 5.70.
N#C[C@H](C[C@@H]1CCCNC1=O)NC(=O)[C@H](CC1CC1)NC(=O)c1cc2cc(Cl)cc(Cl)c2[nH]1 [Compound 842, 5,7-dichloro-N-[(1S)-2-[[(1S)-1-cyano-2-[(3S)-2-oxo-3-piperidyl]ethyl]amino]-1-(cyclopropylmethyl)-2-oxo-ethyl]-1H-indole-2-carboxamide] was tested, and the pEC50 (read-out: 229E Mpro EC50) was > 5.70.
With COc1ccc(Br)c2[nH]c(C(=O)N[C@@H](CC3CC3)C(=O)N[C@H](C#N)C[C@@H]3CCCNC3=O)cc12 [Compound 846] the pEC50 (read-out: 229E Mpro EC50) was > 5.70.
N#C[C@H](C[C@@H]1CCCNC1=O)NC(=O)[C@H](CC1CC1)NC(=O)c1[nH]c2cc(Br)ccc2c1F [Compound 848, 6-bromo-N-[(1S)-2-[[(1S)-1-cyano-2-[(3S)-2-oxo-3-piperidyl]ethyl]amino]-1-(cyclopropylmethyl)-2-oxo-ethyl]-3-fluoro-1H-indole-2-carboxamide] was tested, and the pEC50 (read-out: 229E Mpro EC50) was > 5.70.
For N#C[C@H](C[C@@H]1CCCNC1=O)NC(=O)[C@H](CC1CC1)NC(=O)c1cc2ccc(F)c(Br)c2[nH]1 [Compound 850], the pEC50 (read-out: 229E Mpro EC50) was 4.52 to 5.00.
In the case of N#C[C@H](C[C@@H]1CCCNC1=O)NC(=O)[C@H](CC1CC1)NC(=O)c1cc2cc(F)cc(Br)c2[nH]1 [Compound 852, 7-bromo-N-((S)-1-(((S)-1-cyano-2-((S)-2-oxopiperidin-3-yl)ethyl)amino)-3-cyclopropyl-1-oxopropan-2-yl)-5-fluoro-1H-indole-2-carboxamide], the pEC50 (read-out: 229E Mpro EC50) was > 5.70.
With N#C[C@H](C[C@@H]1CCCNC1=O)NC(=O)[C@H](CC1CC1)NC(=O)c1cc2c(F)ccc(Br)c2[nH]1 [Compound 854] the pEC50 (read-out: 229E Mpro EC50) was > 5.70.

From patent publication US11524940B1, “Inhibitors of cysteine proteases and methods of use thereof” (priority 2020, dated 2022)
